Measured values from patent US20250230159A1, “FUSED HETEROCYCLIC COMPOUNDS AS MODULATORS OF RAS SIGNALLING” (Shenzhen Ionova Life Science Co., Ltd., priority 2022, published 2025).

What was measured:
[1] = target: KRAS-G12C/SOS1 interaction (Homo sapiens (Human), UniProt Q07889); test: Protein-Protein Interaction (PPI) assay, SOS1-KRAS binding assay kit (HTRF); conditions: read-out: PPI Assay IC50
[2] = test system: pERK in Hela cells; test: Phospho-ERK (p-ERK) assay in Hela cells; assay type: cell-based; conditions: Homo sapiens, Table 1, 1 hour with compound, β-actin normalized
Summary of the method: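 Cells were treated for 1 h at 37 °C with compound in a 9-point, 3-fold series from 10 μM, then fixed and stained for pERK and β-actin. An In-Cell Western read-out normalized pERK to β-actin and to vehicle wells to give % inhibition and IC50.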

Chain of KRAS-G12C/SOS1 interaction (Q07889 whole entry, stated change not applied): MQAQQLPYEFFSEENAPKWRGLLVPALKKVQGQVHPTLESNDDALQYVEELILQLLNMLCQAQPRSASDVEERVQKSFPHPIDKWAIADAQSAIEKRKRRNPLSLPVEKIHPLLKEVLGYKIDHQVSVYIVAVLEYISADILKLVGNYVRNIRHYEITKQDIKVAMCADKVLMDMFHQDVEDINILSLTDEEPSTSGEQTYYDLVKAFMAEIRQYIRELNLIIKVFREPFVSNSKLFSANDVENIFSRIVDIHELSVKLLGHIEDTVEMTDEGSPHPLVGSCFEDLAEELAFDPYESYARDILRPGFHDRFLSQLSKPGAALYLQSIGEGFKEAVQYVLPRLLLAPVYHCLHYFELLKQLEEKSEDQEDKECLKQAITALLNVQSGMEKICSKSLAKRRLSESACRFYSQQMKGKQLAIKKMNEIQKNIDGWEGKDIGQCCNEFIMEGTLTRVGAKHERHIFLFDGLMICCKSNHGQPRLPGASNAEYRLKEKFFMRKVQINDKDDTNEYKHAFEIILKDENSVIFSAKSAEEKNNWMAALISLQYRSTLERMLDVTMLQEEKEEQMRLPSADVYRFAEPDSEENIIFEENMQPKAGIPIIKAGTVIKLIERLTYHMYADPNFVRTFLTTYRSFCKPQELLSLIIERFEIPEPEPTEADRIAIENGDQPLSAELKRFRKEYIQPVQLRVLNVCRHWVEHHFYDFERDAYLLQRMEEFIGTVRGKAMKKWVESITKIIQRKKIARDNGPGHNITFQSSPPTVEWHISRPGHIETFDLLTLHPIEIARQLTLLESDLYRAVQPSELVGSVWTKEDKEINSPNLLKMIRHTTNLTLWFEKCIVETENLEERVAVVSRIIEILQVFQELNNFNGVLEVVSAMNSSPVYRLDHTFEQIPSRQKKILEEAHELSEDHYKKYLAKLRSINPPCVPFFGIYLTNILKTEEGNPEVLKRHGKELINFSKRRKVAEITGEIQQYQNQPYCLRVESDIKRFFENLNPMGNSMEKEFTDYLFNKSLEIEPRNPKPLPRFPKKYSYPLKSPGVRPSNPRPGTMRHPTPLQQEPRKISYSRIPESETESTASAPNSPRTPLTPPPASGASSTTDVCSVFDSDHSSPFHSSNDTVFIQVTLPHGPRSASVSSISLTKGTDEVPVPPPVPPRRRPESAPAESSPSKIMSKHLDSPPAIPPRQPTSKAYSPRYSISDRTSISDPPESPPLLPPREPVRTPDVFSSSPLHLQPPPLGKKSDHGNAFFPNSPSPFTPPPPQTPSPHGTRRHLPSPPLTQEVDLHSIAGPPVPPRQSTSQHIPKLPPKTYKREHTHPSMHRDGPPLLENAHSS

Row | IC50 [1] [nM] | Compound | IC50 [2] [nM]
1 | < 100 | C[C@@H](Nc1ncnc2c1cc(N1CC(C(=O)N(C)C)C1)c1nnnn12)c1cccc(C(F)F)c1F [Example 97] | > 100
2 | < 100 | CC(=O)N1CCC(c2cc3c(N[C@H](C)c4cccc(C(F)F)c4F)ncnc3n3cnnc23)CC1 [Example 136, (R)-1-(4-(4-((1-(3-(difluoromethyl)-2-fluorophenyl)ethyl)amino)-[1,2,4]triazolo[4′,3′:1,6]pyrido[2,3-d]pyrimidin-6-yl)piperidin-1-yl)ethan-1-one] | > 100
3 | < 100 | C[C@@H](Nc1ncnc2c1cc(C(=O)N1CC3(COC3)C1)c1ncnn12)c1cccc(C(F)F)c1F [Example 42] | > 100
4 | < 100 | CC(=O)N1CCC(O)(c2cc3c(N[C@H](C)c4cccc(C(F)F)c4F)nc(C)nc3n3cnnc23)C1 (some centres unmarked) [Example 109] | > 100
